# Test results taken from ChEMBL document CHEMBL4376803, “Recent Advances in the Exploration of Therapeutic Analogues of Gramicidin S, an Old but Still Potent Antimicrobial Peptide” (J Med Chem, 2019).
# Square brackets hold non-standard residues; d marks the D form. Peptide text beside a SMILES is read from it. Orn = NCCC[C@H](N)C(=O)O
# How the values were obtained:
# Escherichia coli [1] = assay: Antibacterial activity against Escherichia coli DC2 after overnight incubation by microtiter dilution method; assay type: functional
# Erythrocyte [2] = assay: Haemolytic activity in human RBC after 4 hrs by visual method; assay type: ADME, cell-based
# Staphylococcus aureus [3] = assay: Antibacterial activity against Staphylococcus aureus K147 after overnight incubation by microtiter dilution method; assay type: functional
# [4] = tested on: Staphylococcus epidermidis; assay: Antibacterial activity against Staphylococcus epidermidis C621 after 22 hrs by double dilution method; assay type: functional; details: C621, 22 h
# Enterococcus faecalis [5] = assay: Antibacterial activity against Enterococcus faecalis C625 after overnight incubation by microtiter dilution method; assay type: functional
# Pseudomonas aeruginosa [6] = assay: Antibacterial activity against Pseudomonas aeruginosa H188 after overnight incubation by microtiter dilution method; assay type: functional
# [7] = Therapeutic index, ratio of HD100 for hemolytic activity in human erythrocytes to MIC against methicillin-resistant Staphylococcus aureus ATCC 4330; assay type: toxicity, cell-based; details: read-out: TI
# [8] = Therapeutic index, ratio of HD100 for hemolytic activity in human RBC to MIC against Candida albicans; assay type: toxicity; details: human red blood cells, read-out: TI
# [9] = Haemolytic activity in human RBC incubated for 1 hr; assay type: ADME, cell-based, Erythrocyte; details: human red blood cells
# [10] = Therapeutic index, ratio of HC90 for hemolytic activity in human erythrocytes to MIC against Enterococcus faecalis ATCC 29212; assay type: toxicity, cell-based; details: read-out: TI
# [11] = Therapeutic index, ratio of HD100 for hemolytic activity in human erythrocytes to MIC against Staphylococcus aureus ATCC 29213; assay type: toxicity, cell-based; details: read-out: TI
# [12] = Therapeutic index, ratio of HD100 for hemolytic activity in human RBC to MIC against Enterococcus faecalis ATCC 29212; assay type: toxicity; details: human red blood cells, read-out: TI
# [13] = Therapeutic index, ratio of HC90 for hemolytic activity in human erythrocytes to MIC against Escherichia coli ATCC 25922; assay type: toxicity, cell-based; details: read-out: TI
# [14] = Therapeutic index, ratio of HD100 for hemolytic activity in human RBC to MIC against Pseudomonas aeruginosa H187; assay type: toxicity; details: human red blood cells, read-out: TI
# [15] = Therapeutic index, ratio of HD100 for hemolytic activity in human RBC to MIC against Escherichia coli UB1005; assay type: toxicity; details: human red blood cells, read-out: TI
# [16] = Haemolytic activity in human erythrocytes incubated for 30 mins; assay type: ADME, cell-based, Erythrocyte
# Erythrocyte [17] = assay: Haemolytic activity in human RBC after 30 mins by spectrophotometric analysis; assay type: ADME, cell-based; details: 0.5 h
# [18] = Therapeutic index, ratio of HD100 for hemolytic activity in human erythrocytes to MIC against Escherichia coli ATCC 25922; assay type: toxicity, cell-based; details: read-out: TI
# [19] = Hemolytic activity against RBC (unknown origin) at 100 ul after 4 hrs; assay type: ADME, cell-based, Erythrocyte; details: red blood cells (unknown origin)
# [20] = Therapeutic index, ratio of HD100 for hemolytic activity in human erythrocytes to MIC against Pseudomonas aeruginosa ATCC 27853; assay type: toxicity, cell-based; details: read-out: TI
# [21] = Haemolytic activity in human RBC after 4 hrs; assay type: ADME, cell-based, Erythrocyte; details: human red blood cells
# [22] = Therapeutic index, ratio of HC90 for hemolytic activity in human erythrocytes to MIC against Staphylococcus aureus ATCC 25923; assay type: toxicity, cell-based; details: read-out: TI
# [23] = Therapeutic index, ratio of HD100 for hemolytic activity in human erythrocytes to MIC against Enterococcus faecalis ATCC 29212; assay type: toxicity, cell-based; details: read-out: TI
# [24] = Haemolytic activity in human erythrocytes at 100 ug/ml after 30 mins relative to control; assay type: ADME, cell-based, Erythrocyte; details: read-out: Activity
# [25] = Hemolytic activity in sheep RBC incubated for 30 mins; assay type: ADME, cell-based, Ovis aries, Erythrocyte; details: sheep red blood cells
# [26] = Hemolytic activity in sheep erythrocytes; assay type: ADME, cell-based, Ovis aries, Erythrocyte
# [27] = Therapeutic index, ratio of HC90 for hemolytic activity in human erythrocytes to MIC against Staphylococcus epidermidis ATCC 12228; assay type: toxicity, cell-based; details: read-out: TI
# Erythrocyte [28] = assay: (§1) Haemolytic activity in human erythrocytes; assay type: ADME, cell-based; details: erythrocyte
# [29] = as §1; assay type: ADME, cell-based, Erythrocyte; details: human erythrocytes
# Lipopolysaccharide (LPS) = assay: Displacement of Dansyl-polymyxin from Pseudomonas aeruginosa LPS by fluorescence method; details: read-out: I50
# [30] = Therapeutic index, ratio of HD100 for hemolytic activity in human RBC to MIC against Staphylococcus aureus K147; assay type: toxicity; details: human red blood cells, read-out: TI
# Escherichia coli [31] = assay: Antibacterial activity against Escherichia coli after 24 hrs by microtitre dilution method; assay type: functional
# [32] = Therapeutic index, ratio of HD100 for hemolytic activity in human erythrocytes to MIC against Escherichia coli; assay type: toxicity, cell-based; details: read-out: TI
# Candida albicans = assay: Antibacterial activity against Candida albicans after 24 hrs by microtitre dilution method; assay type: functional
# [33] = Therapeutic index, ratio of HD100 for hemolytic activity in human erythrocytes to MIC against Pseudomonas aeruginosa; assay type: toxicity, cell-based; details: read-out: TI
# Pseudomonas aeruginosa [34] = assay: Antibacterial activity against Pseudomonas aeruginosa after 24 hrs by microtitre dilution method; assay type: functional
# [35] = Therapeutic index, ratio of HD100 for hemolytic activity in human RBC to MIC against Enterococcus faecalis; assay type: toxicity; details: human red blood cells, read-out: TI
# Enterococcus faecalis [36] = assay: Antibacterial activity against Enterococcus faecalis after 24 hrs by microtitre dilution method; assay type: functional
# Staphylococcus aureus [37] = assay: Antibacterial activity against Staphylococcus aureus after 24 hrs by microtitre dilution method; assay type: functional
# [38] = Therapeutic index, ratio of HD100 for hemolytic activity in human RBC to MIC against Staphylococcus aureus; assay type: toxicity; details: human red blood cells, read-out: TI
compound,measurement,setting,value
CC(C)C[C@@H]1NC(=O)[C@H](CCCN)NC(=O)[C@H](C(C)C)NC(=O)[C@@H]2CC[C@@H]3CC[C@H](NC(=O)[C@H](CC(C)C)NC(=O)[C@@H](CCCN)NC(=O)[C@H](C(C)C)NC(=O)[C@@H]4CC[C@@H]5CC[C@H](NC1=O)C(=O)N54)C(=O)N32,MIC,Escherichia coli [1],25 µg/mL
same,HC90,Erythrocyte [2],400 µg/mL
same,MIC,Staphylococcus aureus [3],12.5 µg/mL
same,MIC,[4],12.5 µg/mL
same,MIC,Enterococcus faecalis [5],25 µg/mL
same,MIC,Pseudomonas aeruginosa [6],12.5 µg/mL
CC(C)C[C@@H]1NC(=O)[C@H](CCCN)NC(=O)[C@H](C(C)C)NC(=O)[C@@H]2CCCN2C(=O)[C@@H](Cc2ccccc2)NC(=O)[C@H](CC(C)C)NC(=O)[C@H](CCCN)NC(=O)[C@H](C(C)C)NC(=O)[C@@H]2CCCN2C(=O)[C@@H](Cc2ccccc2)NC1=O (cyclo(L[dF]PV[Orn]L[dF]PV[Orn])),selectivity ratio,[7],7.8
same,selectivity ratio,[8],4
same,HC50 at 1 h,[9],14.3 µg/mL
same,selectivity ratio,[10],1.5
same,HD100,Erythrocyte [2],12.5 µg/mL
same,selectivity ratio,[11],15.6
same,selectivity ratio,[12],4.5
same,selectivity ratio,[13],0.38
same,selectivity ratio,[14],0.6
same,selectivity ratio,[15],2
same,HC50 at 0.5 h,[16],5 to 10 µg/mL
same,HC90,Erythrocyte [17],12 µg/mL
same,selectivity ratio,[18],2
same,HC50 at 4 h,[19],5 to 31.2 µg/mL
same,selectivity ratio,[20],1
same,HC50 at 4 h,[21],17.5 µg/mL
same,selectivity ratio,[22],3
same,selectivity ratio,[23],7.8
same,"hemolysis at 0.5 h, 100 ug/ml",[24],80%
same,HC50 at 0.5 h,[25],25 to 35 µg/mL
same,HC50,[26],25 to 35 µg/mL
same,selectivity ratio,[27],6
same,Activity,Erythrocyte [28],62.5 µg/mL
same,HC50,[29],12 µg/mL
same,IC50,Lipopolysaccharide (LPS),295 µM
same,selectivity ratio,[30],8.3
CC(C)C[C@@H]1NC(=O)[C@H](CCCCN)NC(=O)[C@H](C(C)C)NC(=O)[C@@H]2CCCN2C(=O)[C@@H](Cc2ccc(O)cc2)NC(=O)[C@H](CC(C)C)NC(=O)[C@H](CCCCN)NC(=O)[C@H](C(C)C)NC(=O)[C@H](CCCCN)NC(=O)[C@H](CC(C)C)NC(=O)[C@H](CCCCN)NC(=O)[C@@H]2CCCN2C(=O)[C@@H](Cc2ccc(O)cc2)NC(=O)[C@H](CCCCN)NC(=O)[C@H](C(C)C)NC(=O)[C@H](CCCCN)NC1=O (cyclo(VKLKVK[dY]PKLKVKL[dY]P)),MIC,Escherichia coli [31],4 µg/mL
same,selectivity ratio,[32],> 50
same,MIC,Candida albicans,16 µg/mL
same,selectivity ratio,[33],> 3.1
same,MIC,Pseudomonas aeruginosa [34],64 µg/mL
same,selectivity ratio,[35],> 50
same,MIC,Enterococcus faecalis [36],4 µg/mL
same,MIC,Staphylococcus aureus [37],8 µg/mL
same,selectivity ratio,[38],> 25
